Assay results published in patent US6642180B1, “Biphenyl-substituted cyclic ketoenols as pesticides” (Bayer Aktiengesellschaft, priority 1999, dated 2003).

Experiments:
Type in all cases: in vivo
[1] = test system: Sugar beet; assay: Post-emergence test (greenhouse); conditions: 250 g ai./ha, after three weeks
Experimental: (§1) Solvent: 5 parts by weight of acetone
(§2) Emulsifier: 1 parts by weight of alkylaryl polyglycol ether
(§3) To produce a suitable preparation of active compound, 1 part by weight of active compound is mixed with the stated amount of solvent, the stated amount of emulsifier is added and the concentrate is diluted with water to the desired concentration.
(§4) Test plants of a height of 5-15 cm are sprayed with the preparation of active compound such that the particular amounts of active compound desired are applied per unit area. The concentration of the spray liquor is chosen such that the particular amounts of active compound desired are applied in 1000 l of water/ha.
(§5) After three weeks, the degree of damage to the plants is rated in % damage in comparison to the development of the untreated control.
(§6) 0% no effect (like untreated control)
(§7) Post-emergence/greenhouse

[2] = test system: Echinochloa; assay: Post-emergence test (greenhouse); conditions: 250 g ai./ha, after three weeks
Experimental: as §1, §2, §3, §4, §5, §6, §7

[3] = test system: Alopecurus; assay: Post-emergence test (greenhouse); conditions: 250 g ai./ha, after three weeks
Experimental: as §1, §2, §3, §4, §5, §6, §7

[4] = test system: Setaria; assay: Post-emergence test (greenhouse); conditions: 250 g ai./ha, after three weeks
Experimental: as §1, §2, §3, §4, §5, §6, §7

[5] = test system: Meloidogyne incognita; assay: Meloidogyne test; conditions: sand, Meloidogyne incognita egg/larvae suspension, lettuce
Experimental: Solvent: 7 parts by weight of dimethylformamide
as §2
To produce a suitable preparation of active compound, 1 part by weight of active compound is mixed with the stated amounts of solvent and emulsifier, and the concentrate is diluted with water to the desired concentration.
Containers are filled with sand, solution of active compound, Meloidogyne incognita-egg/larvae suspension and lettuce seeds. The lettuce seeds germinate and the plants develop. On the roots, galls are formed.
After the desired period of time, the nematicidal action is determined in % by the gall formation. 100% means that no galls were found; 0% means that the number of galls on the treated plants corresponds to that of the untreated control.

[6] = test system: Avena fatua; assay: Pre-emergence test (greenhouse); conditions: 250 g ai./ha, after 3 weeks
Experimental: as §1
(§8) Emulsifier: 1 part by weight of alkylaryl polyglycol ether
(§9) To produce a suitable preparation of active compound, 1 part by weight of active compound is mixed with the stated amount of solvent, with the stated amounts of emulsifiers added and the concentrate is diluted with water to the desired concentration.
(§10) Seeds of the test plants are sown in normal soil. After about 24 hours, the soil is sprayed with the preparation of active compound such that the particular amounts of active compound desired are applied per unit area. The concentration of the spray liquor is chosen such that the particular amounts of active compound desired are applied in 1000 l of water/ha.
(§11) After 3 weeks, the degree of damage to the plants is rated in % damage in comparison to the development of the untreated control.
(§12) 0%=no effect (like untreated control)

[7] = test system: Echinochloa; assay: Pre-emergence test (greenhouse); conditions: 250 g ai./ha, after 3 weeks
Experimental: as §1, §8, §9, §10, §11, §12

[8] = test system: Abutilon; assay: Pre-emergence test (greenhouse); conditions: 250 g ai./ha, after 3 weeks
Experimental: as §1, §8, §9, §10, §11, §12

[9] = test system: Alopecurus; assay: Pre-emergence test (greenhouse); conditions: 250 g ai./ha, after 3 weeks
Experimental: as §1, §8, §9, §10, §11, §12

[10] = test system: Setaria; assay: Pre-emergence test (greenhouse); conditions: 250 g ai./ha, after 3 weeks
Experimental: as §1, §8, §9, §10, §11, §12

[11] = test system: larvae of the mustard beetle (Phaedon cochleariae); assay: Phaedon-larvae test; conditions: cabbage leaves dipped
Experimental: Phaedon-larvae Test Solvent: 7 parts by weight of dimethylformamide Emulsifier: 1 part by weight of alkylaryl polyglycol ether To produce a suitable preparation of active compound, 1 part by weight of active compound is mixed with a stated amount of solvent and emulsifier, and the concentrate is diluted with emulsifier-containing water to the desired concentration. Cabbage leaves (Brassica oleracea) are treated by being dipped into the preparation of active compound of the desired concentration and are populated with larvae of the mustard beetle (Phaedon cochleariae) while the leaves are still moist.

COC(=O)N(C)COC1=C(c2c(C)cc(-c3ccc(Cl)cc3)cc2C)C(=O)CC(C)(C)C1 [Example I-8-1]
degree of damage to the plants, Sugar beet [1]: 0%
degree of damage to the plants, Echinochloa [2]: 100%
degree of damage to the plants, Alopecurus [3]: 80%
degree of damage to the plants, Setaria [4]: 100%
activity (nematicidal action by gall formation) [5]: good activity
degree of damage to the plants, Avena fatua [6]: 90%
degree of damage to the plants, Echinochloa [7]: 100%
degree of damage to the plants, Abutilon [8]: 80%
degree of damage to the plants, Alopecurus [9]: 90%
degree of damage to the plants, Setaria [10]: 100%
activity (kill of beetle larvae) [11]: good activity
